Measurements: patent US5698411A, “Method for determining activity of enzymes in metabolically active whole cells” (priority 1995, dated 1997)
Numbered stars: 1 amine (or outer) side, 2 acyl side, 3 side chain; on linkers, the order of the positions; unused ones are H or OH. Bridge positions count the residues as written; N and C are the ends. Peptide text beside a SMILES is read from it. I, II: the chains in the order shown. Rhodamine110 = O=C1OC2(c3ccc(N[*:1])cc3Oc3cc(N[*:2])ccc32)c2ccccc21

Key:
Format in all cases: cell-based, human
[1] = tested on: lymphocytes; experiment: aberrant enzyme activities in febrile children, lymphocytes (Table 7)
[2] = tested on: granulocytes; experiment: aberrant enzyme activities in febrile children, granulocytes (Table 7)
[3] = tested on: monocytes; experiment: aberrant enzyme activities in febrile children, monocytes (Table 7)
[4] = tested on: lymphocytes; experiment: enzyme activity with fluorogenic substrate, normal lymphocytes (Table 3A)
[5] = tested on: granulocytes; experiment: enzyme activity with fluorogenic substrate, normal granulocytes (Table 3A)
[6] = tested on: metabolically active whole cell; experiment: substrate panel in normals and HIV + patients, TB infection (Table 4); parameters: unit not given here
Experimental: A panel of assay compounds are assembled consisting of Ala-aminopeptidase and Lys-aminopeptidase, Dipeptidyl peptidase IV (Ala-Ala)2 rhodamine 110 and Cathepsin D to indicate possible TB infection in AIDS related cases.
A panel Of enzymatic substrates is performed consisting of Ala-aminopeptidase and Lys-aminopeptidase, Dipeptidyl peptidase IV (Ala-Ala)2 rhodamine 110 and Cathepsin D to indicate possible TB infection in AIDS related cases.

[7] = tested on: monocytes; experiment: enzyme activity with fluorogenic substrate, normal monocytes (Table 3A)

Structure (SMILES) | aberrant enzyme activity, LYMPHS ([1]; P88 Enteritis) | aberrant enzyme activity, LYMPHS ([1]; P89 Viral Stomatitis) | aberrant enzyme activity, LYMPHS ([1]; P92 Adenitis) | aberrant enzyme activity, LYMPHS ([1]; P95 Viral Syndrome) | aberrant enzyme activity, LYMPHS ([1]; P96 Viral Syndrome) | aberrant enzyme activity, LYMPHS ([1]; P97 Pyelonephritis) | aberrant enzyme activity, LYMPHS ([1]; P99 Viral Syndrome) | aberrant enzyme activity, LYMPHS ([1]; P101 Fever -- Unknown Origin) | aberrant enzyme activity, LYMPHS ([1]; P102 UTI) | aberrant enzyme activity, LYMPHS ([1]; P103 Viral Syndrome) | aberrant enzyme activity, GRANS ([2]; P88 Enteritis) | aberrant enzyme activity, GRANS ([2]; P89 Viral Stomatitis) | aberrant enzyme activity, GRANS ([2]; P92 Adenitis) | aberrant enzyme activity, GRANS ([2]; P95 Viral Syndrome) | aberrant enzyme activity, GRANS ([2]; P96 Viral Syndrome) | aberrant enzyme activity, GRANS ([2]; P97 Pyelonephritis) | aberrant enzyme activity, GRANS ([2]; P99 Viral Syndrome) | aberrant enzyme activity, GRANS ([2]; P101 Fever -- Unknown Origin) | aberrant enzyme activity, GRANS ([2]; P102 UTI) | aberrant enzyme activity, GRANS ([2]; P103 Viral Syndrome) | also measured
CC(C)[C@H](N)C(=O)N[C@@H](CCCCN)C(=O)Nc1ccc2c(c1)Oc1cc(NC(=O)[C@H](CCCCN)NC(=O)[C@@H](N)C(C)C)ccc1C21OC(=O)c2ccccc21 [VK, (Val-Lys)2 Rho 110] | .smallcircle. | .smallcircle. | .smallcircle. | - (>0.25 Decrease over normal range) | .smallcircle. | .smallcircle. | + (>0.25 Increase over normal range) | .smallcircle. | .smallcircle. | .smallcircle. | - (>0.25 Decrease over normal range) | - (>0.25 Decrease over normal range) | .smallcircle. | - (>0.25 Decrease over normal range) | .smallcircle. | + (>0.25 Increase over normal range) | + (>0.25 Increase over normal range) | .smallcircle. | .smallcircle. | .smallcircle. | aberrant enzyme activity, MONOS ([3]; P88 Enteritis): - (>0.25 Decrease over normal range); aberrant enzyme activity, MONOS ([3]; P89 Viral Stomatitis): - (>0.25 Decrease over normal range); aberrant enzyme activity, MONOS ([3]; P92 Adenitis): .smallcircle.; aberrant enzyme activity, MONOS ([3]; P95 Viral Syndrome): .smallcircle.; aberrant enzyme activity, MONOS ([3]; P96 Viral Syndrome): .smallcircle.; aberrant enzyme activity, MONOS ([3]; P97 Pyelonephritis): .smallcircle.; aberrant enzyme activity, MONOS ([3]; P99 Viral Syndrome): + (>0.25 Increase over normal range); aberrant enzyme activity, MONOS ([3]; P101 Fever -- Unknown Origin): .smallcircle.; aberrant enzyme activity, MONOS ([3]; P102 UTI): - (>0.25 Decrease over normal range); aberrant enzyme activity, MONOS ([3]; P103 Viral Syndrome): + (>0.25 Increase over normal range); NORMAL LEUKOCYTE ENZYME ACTIVITY LYMPHS Mean [4]: 1.87; NORMAL LEUKOCYTE ENZYME ACTIVITY GRANS Mean [5]: 5.10; MEAN DELTA FL ([6]; HIV + PATIENTS): 17.7; MEAN DELTA FL ([6]; NORMALS): 22.7
N=C(N)NCCC[C@H](N)C(=O)NCC(=O)N[C@@H](CCC(=O)O)C(=O)N[C@@H](CO)C(=O)Nc1ccc2c(c1)Oc1cc(NC(=O)[C@H](CO)NC(=O)[C@H](CCC(=O)O)NC(=O)CNC(=O)[C@@H](N)CCCNC(=N)N)ccc1C21OC(=O)c2ccccc21 (stereo partly drawn) [RGES, (Arg-Gly-Glu-Ser)2 Rho 110] (I: H-RGES / II: H-RGES; linker I:C-II:C via Rhodamine110) | .smallcircle. | .smallcircle. | .smallcircle. | .smallcircle. | + (>0.25 Increase over normal range) | .smallcircle. | .smallcircle. | .smallcircle. | .smallcircle. | .smallcircle. | .smallcircle. | + (>0.25 Increase over normal range) | + (>0.25 Increase over normal range) | .smallcircle. | .smallcircle. | .smallcircle. | .smallcircle. | .smallcircle. | .smallcircle. | .smallcircle. | aberrant enzyme activity, MONOS ([3]; P88 Enteritis): - (>0.25 Decrease over normal range); aberrant enzyme activity, MONOS ([3]; P89 Viral Stomatitis): .smallcircle.; aberrant enzyme activity, MONOS ([3]; P92 Adenitis): + (>0.25 Increase over normal range); aberrant enzyme activity, MONOS ([3]; P95 Viral Syndrome): .smallcircle.; aberrant enzyme activity, MONOS ([3]; P96 Viral Syndrome): .smallcircle.; aberrant enzyme activity, MONOS ([3]; P97 Pyelonephritis): .smallcircle.; aberrant enzyme activity, MONOS ([3]; P99 Viral Syndrome): .smallcircle.; aberrant enzyme activity, MONOS ([3]; P101 Fever -- Unknown Origin): - (>0.25 Decrease over normal range); aberrant enzyme activity, MONOS ([3]; P102 UTI): .smallcircle.; aberrant enzyme activity, MONOS ([3]; P103 Viral Syndrome): .smallcircle.; NORMAL LEUKOCYTE ENZYME ACTIVITY GRANS Mean [5]: 3.96; NORMAL LEUKOCYTE ENZYME ACTIVITY MONOS Mean [7]: 8.37
